Data on 15 compounds can be found in patent publication US20120142771A1, “BIPHENYLACETAMIDE DERIVATIVE” (Dainippon Sumitomo Pharma Co., Ltd., priority 2008, published 2012).

What all share (format): in vivo, mice
Assay [1] relates to maximum electroshock seizure (MES) model. As to the kind of experiment: Maximum electroshock seizure (MES) model test. To be noted: for responders at 50 mg/kg / responders at 100 mg/kg: Mus musculus, po, 1 h; for responders at 50 mg/kg / responders at 100 mg/kg / MES (positive number/tested number): inhibition of hind limb extension; for anticonvulsant action in maximum electroshock seizure (MES) model test: mice, oral 50 or 100 mg/kg, 1 hour after administration. In a few lines: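 Tonic hind-limb extension was elicited by corneal electroshock (60 Hz, 25 mA, 0.2 s) 1 h after oral dosing. Test compounds were given at 50 or 100 mg/kg to groups of 3 male Slc: ddY mice (20-30 g), vehicle controls receiving 0.5% tragacanth or 0.5% methylcellulose solution.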

Assay [2] relates to subcutaneously pentetrazol-injected model (scPTZ). As to the kind of experiment: Subcutaneously pentetrazol-injected model (scPTZ) test. The conditions noted are these: pentetrazol 85 mg/kg s.c. after 1 hour; for responders at 50 mg/kg / responders at 100 mg/kg: Mus musculus, po, 1 h, read-out: scPTZ (positive number/tested number) (converted); for responders at 50 mg/kg / responders at 100 mg/kg / scPTZ (positive number/tested number): Slc: ddY male mice, 3 per group, observed 30 minutes for clonic convulsion; for anticonvulsant action in subcutaneously pentetrazol-injected model (scPTZ) test: mice, oral 50 or 100 mg/kg. The procedure, abridged:
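Pentetrazol (85 mg/kg, s.c.) was injected one hour after oral test compound at 50 or 100 mg/kg in groups of three male Slc:ddY mice weighing 20-30 g; vehicle controls got 0.5% tragacanth or 0.5% methylcellulose.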

The subject of assay [3] is 6 Hz psychomotor seizure model. In words: 6 Hz psychomotor seizure model. The conditions noted are these: for 6 Hz (Positive number/tested number): dose 100 mg/kg, 30 minutes or 1 hour after administration; for efficacy in 6 Hz psychomotor seizure model: oral administration at a dose of 100 mg/kg. The method, then:
Test 4: Test of 6 Hz Psychomotor Seizure Model
Similar to Tests 1 and 2, Test 4 evaluates the anticonvulsant action of medicaments. However, unlike Tests 1 and 2, the animal model used herein represents clinical phenotypes of seizures resistant to existing antiepileptic drugs. […] After 30 minutes or an hour of administration, their corneas were electrically stimulated (6 Hz, 32 mA, 3 seconds) to induce symptoms of myoclonus in their forelimbs, Straub tail, and immobility. […] To the control mice, 0.5% tragacanth solution, 0.5% methylcellulose solution, or olive oil was administered.

The mark [4] stands for this setting: 50 mg/kg oral, Slc: ddY male mice, 3 per group, electrical stimulation 1 hour after administration, read-out: MES (positive number/tested number) (converted).
The mark [5] stands for this setting: 100 mg/kg oral, Slc: ddY male mice, 3 per group, electrical stimulation 1 hour after administration, read-out: MES (positive number/tested number) (converted).
Setting [6] is: 50 mg/kg oral, Slc: ddY male mice, 3 per group, electrical stimulation 1 hour after administration.

Where two headings read alike, the source gives them in different places.

For the compound `NC(=O)C(O)c1ccccc1-c1ccccc1F` (stereo not shown) [Example 60, 2-(2′-Fluorobiphenyl-2-yl)-2-hydroxyacetamide], the responders at 50 mg/kg in assay [1] (setting [4]) was 100%; in assay [2] (50 mg/kg oral), 33.3%. In addition, the responders at 100 mg/kg is 100% in assay [1] (setting [5]) and 66.7% in assay [2] (100 mg/kg oral). For the same compound, in assay [3] (mice, oral), the “6 Hz (Positive number/tested number)” value is reported as 1/5/100.

Turning to `NC(=O)[C@@H](O)c1ccccc1-c1ccccc1` [Example 208, 2-(biphenyl-2-yl)-2S-hydroxyacetamide], the “MES (positive number/tested number)” value is recorded as 2/3 in assay [1] (setting [6]) and 3/3 in assay [1] (100 mg/kg oral, Slc: ddY male mice, 3 per group, electrical stimulation 1 hour after administration). The “scPTZ (positive number/tested number)” value is 1/3 in assay [2] (50 mg/kg oral) and 2/3 in assay [2] (100 mg/kg oral). In assay [3] (6 Hz psychomotor seizure model, mice, oral, read-out: ED50), the median effective dose (ED50) stood at 90.6 mg/kg. Further, the “6 Hz (Positive number/tested number)” value in assay [3] (mice, oral) is 7/10/100.

Consider `NC(=O)Cc1ccccc1-c1cccc(Cl)c1` [Example 13, 2-(3′-chlorobiphenyl-2-yl)acetamide], for which the responders at 50 mg/kg is 66.7% in assay [1] (setting [4]) and 100% in assay [2] (50 mg/kg oral). For the same compound, the responders at 100 mg/kg was 100% in assay [1] (setting [5]) and 66.7% in assay [2] (100 mg/kg oral). Moreover, the “anticonvulsant action in maximum electroshock seizure (MES) model test” value (shortened to “anticonvulsant action … (MES) model test”) in assay [1] is “anticonvulsant action was observed”. Besides, the “anticonvulsant action in subcutaneously pentetrazol-injected model (scPTZ) test” value (“anticonvulsant action … (scPTZ) test” for short) in assay [2] was “anticonvulsant action was observed”. Also, in assay [3] (mice, oral), the “6 Hz (Positive number/tested number)” value is listed as 2/10/100.

For `NC(=O)[C@H](O)c1ccccc1-c1cc(Cl)cc(Cl)c1` (single isomer, unassigned) [Example 215, 2-(3′,5′-Dichlorobiphenyl-2-yl)-2R-hydroxyacetamide], the responders at 50 mg/kg in assay [1] (setting [4]) was 66.7%; in assay [2] (50 mg/kg oral), 0%. Also, the responders at 100 mg/kg in assay [1] (setting [5]) and in assay [2] (100 mg/kg oral) was 66.7% in each case. The ED50 in assay [3] (Mus musculus, 6 Hz psychomotor seizure model, mice, oral, read-out: ED50) was determined as 64.8 mg/kg. The “6 Hz (Positive number/tested number)” value in assay [3] (mice, oral) is listed as 7/10/100.

Take `NC(=O)Cc1ccccc1-c1cc(F)ccc1Cl` [Example 88, 2-(2′-chloro-5′-fluorobiphenyl-2-yl)acetamide]: the responders at 50 mg/kg in assay [1] (setting [4]) and in assay [2] (50 mg/kg oral) was 66.7% throughout. For the same compound, the responders at 100 mg/kg in assay [1] (setting [5]) and in assay [2] (100 mg/kg oral) was 100% in each case. The “anticonvulsant action … (MES) model test” value in assay [1] is “anticonvulsant action was observed”. In assay [2], the “anticonvulsant action … (scPTZ) test” value is recorded as “anticonvulsant action was observed”. Also, in assay [3] (mice, oral), the “6 Hz (Positive number/tested number)” value was 3/5/100.

As to `NC(=O)C(O)c1ccccc1-c1cc(Cl)cc(Cl)c1` (stereo not shown) [Example 183, 2-(3′,5′-dichlorobiphenyl-2-yl)-2-hydroxyacetamide], the responders at 50 mg/kg in assay [1] (setting [4]) was 100%; in assay [2] (50 mg/kg oral), 66.7%. The results for the responders at 100 mg/kg in assay [1] (setting [5]) and in assay [2] (100 mg/kg oral) were 100% and 66.7%, respectively. In assay [1], the “anticonvulsant action … (MES) model test” value is reported as “anticonvulsant action was observed”. The “anticonvulsant action … (scPTZ) test” value in assay [2] is “anticonvulsant action was observed”. In assay [3] (mice, oral), the “6 Hz (Positive number/tested number)” value is reported as 4/5/100.

In the case of `NC(=O)Cc1ccccc1-c1cc(OC(F)(F)F)ccc1F` [Example 93, 2-[2′-fluoro-5′-(trifluoromethoxy)biphenyl-2-yl]acetamide], the responders at 50 mg/kg in assay [1] (setting [4]) is 100%; in assay [2] (50 mg/kg oral) it was 33.3%. For the same compound, the responders at 100 mg/kg in assay [1] (setting [5]) and in assay [2] (100 mg/kg oral) was 100% in each case. In addition, in assay [3] (mice, oral), the “6 Hz (Positive number/tested number)” value was 2/5/100.

Turning to `NC(=O)C(O)c1ccccc1-c1cc(F)ccc1Cl` (stereo not shown) [Example 185, 2-(2′-chloro-5′-fluorobiphenyl-2-yl)-2-hydroxyacetamide], the responders at 50 mg/kg in assay [1] (setting [4]) and in assay [2] (50 mg/kg oral) was 66.7% in each case. Further, the responders at 100 mg/kg in assay [1] (setting [5]) and in assay [2] (100 mg/kg oral) was 100% each time. Besides, the “anticonvulsant action … (MES) model test” value in assay [1] is reported as “anticonvulsant action was observed”. In assay [2], the “anticonvulsant action … (scPTZ) test” value is given as “anticonvulsant action was observed”. In addition, the “efficacy in 6 Hz psychomotor seizure model” value in assay [3] (mice) is given as “potent efficacy”. Moreover, the “6 Hz (Positive number/tested number)” value in assay [3] (mice, oral) is 5/5/100.

With `NC(=O)C(F)c1ccccc1-c1ccccc1` (single isomer, unassigned) [Example 209, 2-(Biphenyl-2-yl)-2-fluoroacetamide], the “MES (positive number/tested number)” value in assay [1] (setting [6]) is given as 3/3. For the same compound, the responders at 100 mg/kg in assay [1] (read-out: MES (positive number/tested number), 100 mg/kg oral, Slc: ddY male mice, 3 per group, electrical stimulation 1 hour after administration) was 100%. In addition, the “anticonvulsant action … (MES) model test” value in assay [1] is “anticonvulsant action was observed”. The “scPTZ (positive number/tested number)” value in assay [2] (50 mg/kg oral) and in assay [2] (100 mg/kg oral) was 2/3 in each case. Also, the “anticonvulsant action … (scPTZ) test” value in assay [2] is recorded as “anticonvulsant action was observed”. The compound further had an ED50 in assay [3] (Mus musculus, po) of 109 mg/kg. Besides, the “6 Hz (Positive number/tested number)” value in assay [3] (mice, oral) is 6/10/100.

With `NC(=O)Cc1ccccc1-c1cc(Cl)cc(Cl)c1Cl` [Example 64, 2-(2′,3′,5′-Trichlorobiphenyl-2-yl)acetamide], the responders at 50 mg/kg was 100% in assay [1] (setting [4]) and 0% in assay [2] (50 mg/kg oral). Besides, the responders at 100 mg/kg in assay [1] (setting [5]) and in assay [2] (100 mg/kg oral) was 100% in each case. Besides, the “6 Hz (Positive number/tested number)” value in assay [3] (mice, oral) is reported as 3/5/100.

Take `NC(=O)Cc1ccccc1-c1ccc(Cl)cc1Cl` [Example 78, 2-(2′,4′-dichlorobiphenyl-2-yl)acetamide]: the results for the responders at 50 mg/kg in assay [1] (setting [4]) and in assay [2] (50 mg/kg oral) were 100% and 0%, respectively. Further, the responders at 100 mg/kg in assay [1] (setting [5]) was 100%; in assay [2] (100 mg/kg oral), 66.7%. In addition, the “6 Hz (Positive number/tested number)” value in assay [3] (mice, oral) is listed as 3/5/100.

`NC(=O)Cc1ccccc1-c1cc(Cl)ccc1C(F)(F)F` [Example 91, 2-[5′-chloro-2′-(trifluoromethyl)biphenyl-2-yl]acetamide]: the results for the responders at 50 mg/kg in assay [1] (setting [4]) and in assay [2] (50 mg/kg oral) were 100% and 66.7%, respectively. Also, the responders at 100 mg/kg in assay [1] (setting [5]) is 100%; in assay [2] (100 mg/kg oral), 66.7%. Further, in assay [1], the “anticonvulsant action … (MES) model test” value is “anticonvulsant action was observed”. The “anticonvulsant action … (scPTZ) test” value in assay [2] is “anticonvulsant action was observed”. In addition, the “efficacy in 6 Hz psychomotor seizure model” value in assay [3] (mice) is recorded as “potent efficacy”. Besides, in assay [3] (mice, oral), the “6 Hz (Positive number/tested number)” value is 5/5/100.

Turning to `NC(=O)Cc1ccccc1-c1cccc(Br)c1` [Example 52, 2-(3′-bromobiphenyl-2-yl)acetamide], the values for the responders at 50 mg/kg in assay [1] (setting [4]) and in assay [2] (50 mg/kg oral) were 66.7% and 33.3%, respectively. Besides, the responders at 100 mg/kg is 100% in assay [1] (setting [5]) and 66.7% in assay [2] (100 mg/kg oral). In addition, the “6 Hz (Positive number/tested number)” value in assay [3] (mice, oral) was 1/5/100.

As for `NC(=O)Cc1ccccc1-c1cccc(F)c1Cl` [Example 86, 2-(2′-chloro-3′-fluorobiphenyl-2-yl)acetamide], the responders at 50 mg/kg was 100% in assay [1] (setting [4]) and 33.3% in assay [2] (50 mg/kg oral). The responders at 100 mg/kg in assay [1] (setting [5]) and in assay [2] (100 mg/kg oral) was 66.7% in each case. The “6 Hz (Positive number/tested number)” value in assay [3] (mice, oral) is recorded as 2/5/100.

Consider `NC(=O)Cc1ccccc1-c1ccc(OC(F)(F)F)c(F)c1` [Example 70, 2-[3′-fluoro-4′-(trifluoromethoxy)biphenyl-2-yl]acetamide], for which the responders at 50 mg/kg in assay [1] (setting [4]) is 33.3%; in assay [2] (50 mg/kg oral), 66.7%. Also, the responders at 100 mg/kg in assay [1] (setting [5]) was 100%; in assay [2] (100 mg/kg oral), 66.7%.
